Where two headings read alike, the source gives them in different places. Numbered stars: 1 amine (or outer) side, 2 acyl side, 3 side chain; on linkers, the order of the positions; unused ones are H or OH. Square brackets hold non-standard residues; d marks the D form. Peptide text beside a SMILES is read from it. * marks the point of attachment. X1 = N=c1ccc2c(-c3ccc(C(=O)*)cc3C(=O)O)c3ccc(N)c(S(=O)(=O)O)c3oc-2c1S(=O)(=O)O; γGlu = O=C(O)[C@H](CCC(=O)[*:2])N[*:1]
Experiments:
[1] = test system: colon-like Caco-2 BBE cells; assay: Internalization of fluorescence-labelled ligands, immunofluorescence microscopy; type: cell-based, human; details: for Kd: 24 h, up to 5.6 µM A488-PC3, FBS-free medium, 5-6 experiments
Method: The full-length clone of rat r24p3-R was transiently transfected into CHO cells 24 h after seeding using Lipofectamine 2000, as described previously. Forty eight hours after transfection, r24p3-R- and empty vector (pcDNA3.1)-transfected cells were incubated for 24 h with 0-2.8 µM A488-PC3, as described previously for A546-MT [24]. Colon- or duodenum-like Caco-2 BBE cells were seeded at a density of 50,000 cells/coverslip and grown for 48 h before addition of different concentrations of A488-PC3 or A546-MT ± hNGAL for 24 h in FBS-free medium. Cells were stained with primary α-NT-24p3-R antibody (1:100) and secondary Cy3-coupled anti-rabbit IgG (1:600) for A488-PC3 uptake or with A546-conjugated anti-rabbit IgG (1:600) for A546-MT uptake.
For each experiment, 5-10 images were acquired and quantified as described earlier. For determination of r24p3-R-dependent fluorescence uptake in CHO cells, values in vector-transfected cells were subtracted from values obtained in the corresponding r24p3-R-transfected cells. […] To determine hNGAL-R-specific uptake of fluorescent dye-labeled proteins in Caco-2 BBE cells 5 images of fields with clusters of hNGAL-R expressing Caco-2 BBE cells and 5 images of clusters of Caco-2 BBE cells not expressing hNGAL-R were analyzed in the absence or presence of the ligand of the hNGAL-R, hNGAL/lipocalin-2 (500 pM).
Unless otherwise indicated, the experiments were repeated at least three times and means ± S.D. were calculated, unless otherwise indicated. Analysis by unpaired Student’s t test or one-way ANOVA assuming equality of variance with Newman-Keuls Multiple Comparison test and Dunnett’s post-hoc test was performed with GraphPad Prism 5.0. […] Transcytosis data fitted using a one-phase exponential decay function. All curve fits were done with GraphPad Prism 5.0. Results with P < 0.05 were considered to be statistically significant.

[2] = test system: colon-like Caco-2 BBE cell monolayers; assay: Apical-to-basolateral transcytosis of fluorescence-labelled ligands across Transwell monolayers; type: in vitro ADME, human; details: colon-like Caco-2 BBE monolayers on Transwell, A-B, 700 nM ligand apical, control conditions (no hNGAL), fluorescence read-out; means ± SEM, n = 9-14
Method: For transyctosis studies Costar Transwell® culture inserts placed on 24-well plates were used (0.4 µM PE membrane, 0.33 cm^2 filter area. Corning Inc., Corning, NY, USA). Briefly, 1.3 ml of Caco-2 BBE medium with 10% FBS was added to the basolateral compartment and Caco-2 BBE colon-like cells were plated at a density of 5 x 10^4 cells/insert in 400 µl medium with 10% FBS added to the apical compartment. The transepithelial electrical resistance (TEER) across the cell monolayer was measured after 0, 24, 48, 72 h culture as well as before and after each experiment. The medium was replaced after 48 h on both, top (apical) and bottom (basolateral) compartments of the culture inserts. […] Before each experiment, the apical medium was replaced by 400 µl medium containing 1% FBS medium and the appropriate fluorescence-labelled ligand at a final concentration of 700 nM with or without 500 pM hNGAL whereas the basolateral medium with 10% FBS remained unchanged. At each experimental time point, 10 µl of the basolateral and the apical medium was removed, frozen at -80° C and subsequently analyzed for fluorescence intensity using standard capillaries in a Monolith NT.015 (NanoTemper Technologies GmbH, Munich, Germany). Data were quantified by semi-logarithmic plotting against standards obtained from stock solutions of fluorescent ligands. […]

Compound	Kd ([1]; read-out: first app KD of A488-PC3 internalization (two-site binding fit))	Kd ([1]; read-out: second app KD of A488-PC3 internalization (two-site binding fit))	effect of 500 pM hNGAL on uptake of 0.7 µM ligand ([1]; 24 h incubation, 0.7 µM ligand with 500 pM hNGAL, 4-5 experiments)	basolateral delivery (AUC over 8 h) [2]
N=c1ccc2c(-c3ccc(C(=O)N[C@@H](CCC(=O)N[C@@H](CS)C(=O)N[C@@H](CCC(=O)N[C@@H](CS)C(=O)N[C@@H](CCC(=O)N[C@@H](CS)C(=O)NCC(=O)O)C(=O)O)C(=O)O)C(=O)O)cc3C(=O)O)c3ccc(N)c(S(=O)(=O)O)c3oc-2c1S(=O)(=O)O [A488-PC3] ({X1-γGlu}-C[γGlu]C[γGlu]CG-OH; N-terminus and C-terminus assumed)	~90 nM	~300 nM	significantly reduced	299.4 ± 18.7 nM x 8 h
A546-Tf: Alexa Fluor 546-labelled transferrin from human serum (Molecular Probes)				402.4 ± 28.0 nM x 8 h

Reference: paper PMC3734285, “Expression and Function of the Lipocalin-2 (24p3/NGAL) Receptor in Rodent and Human Intestinal Epithelia” (PLoS ONE, 2013)
